ChEMBL document CHEMBL3885861, “Open TG-GATES”

Species: Rattus norvegicus
Assay: Open TG-GATES - Regimen: Single
Assay type: toxicity, organism-based, Sprague-Dawley
Set-up: regimen Single, gender Male, age 6 weeks
Settings: in vivo, po, 0 mg/kg, route gavage, dose level Control; for APTT / Bas / Eos / Fbg / Hb / Ht / Lym / MCH / MCHC / MCV / Mono / Neu / PT / Plat / RBC / Ret / WBC: tissue Blood; for KIDNEY_L / KIDNEY_R / KIDNEY_TOTAL: tissue Kidney; for LIVER: tissue Liver; for A/G / ALP / ALT / AST / BUN / CRE / Ca / Cl / DBIL / GLC / IP / K / LDH / Na / PL / RALB / TBIL / TC / TG / TP / gamma-GTP: tissue Plasma

SMILES: O=C(O)COc1nn(Cc2ccccc2)c2ccccc12 [BENDAZAC]
- TERMINAL_BW (3 h): 211 g
- APTT (3 h): 17.2 s
- Bas (3 h): 0%
- Eos (3 h): 0.8%
- Fbg (3 h): 208.8 mg/dL
- Hb (3 h): 13.6 g/dL
- Ht (3 h): 40.7%
- Lym (3 h): 77.2%
- MCH (3 h): 21.7 pg
- MCHC (3 h): 33.3%
- MCV (3 h): 65.1 fL
- Mono (3 h): 10.4%
- Neu (3 h): 12%
- PT (3 h): 11.2 s
- Plat (3 h): 119 x10_4/uL
- RBC (3 h): 625 x10_4/ul
- Ret (3 h): 8.9%
- WBC (3 h): 108.6 x10_2/uL
- KIDNEY_L (3 h): 0.9 g
- KIDNEY_R (3 h): 1 g
- KIDNEY_TOTAL (3 h): 1.9 g
- LIVER (3 h): 10 g
- A/G (3 h): 2.2
- ALP (3 h): 955 IU/L
- ALT (3 h): 37.2 IU/L
- AST (3 h): 65.8 IU/L
- BUN (3 h): 12.4 mg/dL
- CRE (3 h): 0.5 mg/dL
- Ca (3 h): 10.9 mg/dL
- Cl (3 h): 103.8 meq/L
- DBIL (3 h): 0.008 mg/dL
- GLC (3 h): 199.4 mg/dL
- IP (3 h): 8.2 mg/dL
- K (3 h): 4.5 meq/L
- LDH (3 h): 89.4 IU/L
- Na (3 h): 139.8 meq/L
- PL (3 h): 145.4 mg/dL
- RALB (3 h): 3.7 g/dL
- TBIL (3 h): 0.3 mg/dL
- TC (3 h): 81 mg/dL
- TG (3 h): 67 mg/dL
- TP (3 h): 5.4 g/dL
- gamma-GTP (3 h): 1 IU/L
- TERMINAL_BW (6 h): 209.6 g
- APTT (6 h): 17.5 s
- Bas (6 h): 0%
- Eos (6 h): 0.8%
- Fbg (6 h): 200.2 mg/dL
- Hb (6 h): 13.9 g/dL
- Ht (6 h): 41.5%
- Lym (6 h): 77.2%
- MCH (6 h): 21.6 pg
- MCHC (6 h): 33.4%
- MCV (6 h): 64.7 fL
- Mono (6 h): 8.4%
- Neu (6 h): 13.4%
- PT (6 h): 11.7 s
- Plat (6 h): 123 x10_4/uL
- RBC (6 h): 642.4 x10_4/ul
- Ret (6 h): 10%
- WBC (6 h): 96.6 x10_2/uL
- KIDNEY_L (6 h): 1 g
- KIDNEY_R (6 h): 1 g
- KIDNEY_TOTAL (6 h): 2 g
- LIVER (6 h): 9.4 g
- A/G (6 h): 2.2
- ALP (6 h): 801.4 IU/L
- ALT (6 h): 33.2 IU/L
- AST (6 h): 59.8 IU/L
- BUN (6 h): 11.6 mg/dL
- CRE (6 h): 0.5 mg/dL
- Ca (6 h): 10.7 mg/dL
- Cl (6 h): 105.6 meq/L
- DBIL (6 h): 0.054 mg/dL
- GLC (6 h): 186.8 mg/dL
- IP (6 h): 9.6 mg/dL
- K (6 h): 4.8 meq/L
- LDH (6 h): 75.2 IU/L
- Na (6 h): 140.8 meq/L
- PL (6 h): 135.6 mg/dL
- RALB (6 h): 3.6 g/dL
- TBIL (6 h): 0.5 mg/dL
- TC (6 h): 72.6 mg/dL
- TG (6 h): 75.8 mg/dL
- TP (6 h): 5.2 g/dL
- gamma-GTP (6 h): 2 IU/L
- TERMINAL_BW (9 h): 211.9 g
- APTT (9 h): 16.6 s
- Bas (9 h): 0%
- Eos (9 h): 1.2%
- Fbg (9 h): 206.4 mg/dL
- Hb (9 h): 13.5 g/dL
- Ht (9 h): 40.3%
- Lym (9 h): 76.8%
- MCH (9 h): 22 pg
- MCHC (9 h): 33.5%
- MCV (9 h): 65.8 fL
- Mono (9 h): 9.6%
- Neu (9 h): 12.8%
- PT (9 h): 11.8 s
- Plat (9 h): 107.3 x10_4/uL
- RBC (9 h): 613.4 x10_4/ul
- Ret (9 h): 10.7%
- WBC (9 h): 98.1 x10_2/uL
- KIDNEY_L (9 h): 1 g
- KIDNEY_R (9 h): 1 g
- KIDNEY_TOTAL (9 h): 2 g
- LIVER (9 h): 9 g
- A/G (9 h): 2.1
- ALP (9 h): 700.2 IU/L
- ALT (9 h): 30 IU/L
- AST (9 h): 64.4 IU/L
- BUN (9 h): 10.8 mg/dL
- CRE (9 h): 0.6 mg/dL
- Ca (9 h): 10.6 mg/dL
- Cl (9 h): 106 meq/L
- DBIL (9 h): 0.056 mg/dL
- GLC (9 h): 197.2 mg/dL
- IP (9 h): 9.9 mg/dL
- K (9 h): 4.6 meq/L
- LDH (9 h): 75 IU/L
- Na (9 h): 143 meq/L
- PL (9 h): 134.4 mg/dL
- RALB (9 h): 3.7 g/dL
- TBIL (9 h): 0.4 mg/dL
- TC (9 h): 73.4 mg/dL
- TG (9 h): 44.2 mg/dL
- TP (9 h): 5.5 g/dL
- gamma-GTP (9 h): 1.8 IU/L
- TERMINAL_BW (24 h): 229.7 g
- APTT (24 h): 17 s
- Bas (24 h): 0%
- Eos (24 h): 1%
- Fbg (24 h): 210.8 mg/dL
- Hb (24 h): 13.5 g/dL
- Ht (24 h): 39.7%
- Lym (24 h): 77.2%
- MCH (24 h): 22.2 pg
- MCHC (24 h): 34%
- MCV (24 h): 65.2 fL
- Mono (24 h): 9.6%
- Neu (24 h): 12.4%
- PT (24 h): 12 s
- Plat (24 h): 125.1 x10_4/uL
- RBC (24 h): 609.6 x10_4/ul
- Ret (24 h): 9.8%
- WBC (24 h): 103.2 x10_2/uL
- KIDNEY_L (24 h): 1 g
- KIDNEY_R (24 h): 1 g
- KIDNEY_TOTAL (24 h): 2 g
- LIVER (24 h): 10.7 g
- A/G (24 h): 2
- ALP (24 h): 978 IU/L
- ALT (24 h): 39.8 IU/L
- AST (24 h): 67.2 IU/L
- BUN (24 h): 17.8 mg/dL
- CRE (24 h): 0.6 mg/dL
- Ca (24 h): 11 mg/dL
- Cl (24 h): 104.6 meq/L
- DBIL (24 h): 0.006 mg/dL
- GLC (24 h): 194.2 mg/dL
- IP (24 h): 7.9 mg/dL
- K (24 h): 4.8 meq/L
- LDH (24 h): 80.6 IU/L
- Na (24 h): 140.4 meq/L
- PL (24 h): 144.6 mg/dL
- RALB (24 h): 3.7 g/dL
- TBIL (24 h): 0.3 mg/dL
- TC (24 h): 77.2 mg/dL
- TG (24 h): 102 mg/dL
- TP (24 h): 5.6 g/dL
- gamma-GTP (24 h): 1.2 IU/L
